One experiment has as its system pERK in MKN1 cells. As to the kind of experiment: cells. Format: cell-based. To be noted: Homo sapiens.
Experiment [1] relates to pERK in NCI-H1435 cells (NF-1 mutant). As to the kind of experiment: pERK inhibition in NF-1 mutant NCI-H1435 cells (Example F). Format: cell-based. Particulars: NCI-H1435, 1 h, read-out: IC50, pERK inhibition.
Procedure: The formaldehyde was discarded from the plates and 150 μL of ice-cold methanol was added to permeabilize the cells for 10 minutes at −20° C. The methanol was discarded from each of the plates and any liquid remaining in the plate by tapping the plate against paper towels. […] The plates were incubated overnight at 4° C. on a shaker.
On Assay day 2, the primary antibody solution was removed. […] The secondary antibody solution as removed and each plate was washed with PBST 3× times. Any liquid remaining was discarded and the plate was imaged using the Licor Odyssey machine according to the manufacturer's instruction, using a set focus length at 3 mm and both 800 nm and 700 nm filters. The GAPDH normalized scan values for each well were divided by the average of vehicle wells to get the % of pERK inhibition. The IC50 values were then calculated with the Graph pad Prism software.
Experiment [2] has as its target recombinant human SOS1 polypeptide (amino acids 560-1049) (Homo sapiens (Human), UniProt Q07889). As to the kind of experiment: biochemical. Format: binding. To be noted: read-out: Ki, Inhibition of Labeled Tracer Binding to SOS1.
Procedure: The ability of a compound of Formula (I) to bind to SOS1 was measured using a HTRF displacement assay. […] After a 1-hour incubation at room temperature, the HTRF signal was measured using Clairostar plate reader (BMG Labtech) according to the manufacturer's instructions. Excitation filter EX-TR was used, and emission 1 was detected at 650-610 nm and emission 2 detected at 620-610 nm. The HTRF ratio was calculated using the formula: [emission 1/emission 2]*10000.
Background signals were calculated from well with a 10 μM inhibitor, known to inhibit 100% at that concentration. The background subtracted signals were converted to % binding relative to DMSO controls. Data were analyzed using XLFIT software (IDBS) using a Morrison equation for competitive binding and Ki's were generated compound of Formula (I).
Where [3] appears, read: MKN-1, pERK inhibition, In-Cell Western, MKN1 or H358 cells (Table 24 does not say which), 0.5-1 hour incubation, read-out: IC50.
[4] abbreviates: HTRF displacement, Cy5 labelled tracer, Morrison equation for competitive binding.

pIC50, pKi: −log10 of the molar value. Counter-ions that a name gives are not always drawn. Like-named read-outs stand apart in the source and are kept apart here.

Sequence of recombinant human SOS1 polypeptide (amino acids 560-1049) (Q07889 560-1049): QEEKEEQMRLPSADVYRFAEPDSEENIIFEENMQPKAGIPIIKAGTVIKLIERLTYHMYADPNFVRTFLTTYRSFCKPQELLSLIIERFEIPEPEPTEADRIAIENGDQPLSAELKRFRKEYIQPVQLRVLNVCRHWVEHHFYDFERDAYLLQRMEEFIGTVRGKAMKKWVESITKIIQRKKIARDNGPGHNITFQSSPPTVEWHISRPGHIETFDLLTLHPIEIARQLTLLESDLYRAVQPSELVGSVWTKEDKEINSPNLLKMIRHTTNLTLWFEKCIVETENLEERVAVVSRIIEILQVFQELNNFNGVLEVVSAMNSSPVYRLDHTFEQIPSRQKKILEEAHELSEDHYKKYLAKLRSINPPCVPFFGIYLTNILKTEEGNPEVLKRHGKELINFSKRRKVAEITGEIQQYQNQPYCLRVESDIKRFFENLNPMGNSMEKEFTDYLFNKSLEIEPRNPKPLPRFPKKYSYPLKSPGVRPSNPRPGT

`Cc1c([C@@H](C)Nc2nnc(C)c3ccc(N4CCN(C(=O)C5CCOCC5)CC4)cc23)cccc1C(F)(F)F` [Example 11-2, (R)-(4-(1-methyl-4-((1-(2-methyl-3-(trifluoromethyl)phenyl)ethyl)amino)phthalazin-6-yl)piperazin-1-yl)(tetrahydro-2H-pyran-4-yl)methanone]: the results for the pIC50 (in the experiment with pERK in MKN1 cells (setting [3]); in experiment [1]) were 7.57 and 7.77, respectively. The negative logarithm of the Ki (pKi) in experiment [2] (setting [4]) was more than 11.00.

As to `Cc1c([C@@H](C)Nc2nnc(C)c3cnc(N4CCOCC4)cc23)cccc1C(F)(F)F` [Example 6-12, (R)-4-methyl-N-(1-(2-methyl-3-(trifluoromethyl)phenyl)ethyl)-7-morpholinopyrido[3,4-d]pyridazin-1-amine], in experiment [1], the pIC50 was 7.20.

As for `Cc1c([C@@H](C)Nc2nnc(C)c3cnc(N4CCNCC4)cc23)cccc1C(F)(F)F` [Example 6-9, (R)-4-methyl-N-(1-(2-methyl-3-(trifluoromethyl)phenyl)ethyl)-7-(piperazin-1-yl)pyrido[3,4-d]pyridazin-1-amine], the pIC50 in experiment [1] is 7.28.

As to `Cc1c([C@@H](C)Nc2nnc(C)c3cnc(N4CCC(N5CCC5)CC4)cc23)cccc1C(F)(F)F` [Example 12-33], the pIC50 in the experiment with pERK in MKN1 cells (setting [3]) was 7.26. Further, the pKi in experiment [2] (setting [4]) was 9.52.

For the compound `Cc1c([C@@H](C)Nc2nnc(C)c3ccc(N4CC[C@@H](N(C)C)C(F)(F)C4)cc23)cccc1C(F)(F)F` [Example 21-5, 7-((R)-4-(dimethylamino)-3,3-difluoropiperidin-1-yl)-4-methyl-N—((R)-1-(2-methyl-3-(trifluoromethyl)phenyl)ethyl)phthalazin-1-amine], the pIC50 in the experiment with pERK in MKN1 cells (setting [3]) is 5.95. Moreover, the pKi in experiment [2] (setting [4]) is 8.87.

On to `Cc1c([C@@H](C)Nc2nnc(C)c3ccc(N4CCN(C(=O)[C@H]5CCOC5)CC4)cc23)cccc1C(F)(F)F` [Example 11-5, (4-(1-methyl-4-(((R)-1-(2-methyl-3-(trifluoromethyl)phenyl)ethyl)amino)phthalazin-6-yl)piperazin-1-yl)((S)-tetrahydrofuran-3-yl)methanone], for which the pIC50 with pERK in MKN1 cells (setting [3]) was 7.92. The pKi in experiment [2] (setting [4]) was 11.00.

In the experiment on pERK in MKN1 cells (MKN-1), `Cc1c([C@@H](C)Nc2nnc(C)c3ccc(N4CCC(N5CCC5)CC4)cc23)cccc1C(F)(F)F` [Example 10-30, (R)-7-(4-(azetidin-1-yl)piperidin-1-yl)-4-methyl-N-(1-(2-methyl-3-(trifluoromethyl)phenyl)ethyl)phthalazin-1-amine hydrochloride salt] had a pIC50 of 7.32. Also, in experiment [2], the pKi was 9.39.

On to `Cc1c(F)cccc1[C@@H](C)Nc1nnc(C)c2cnc(N3CC(C)(N(C)C)C3)cc12` [Example 12-82], for which the pIC50 with pERK in MKN1 cells (setting [3]) is 6.48. Moreover, the pKi in experiment [2] (setting [4]) was 7.68.

In the case of `Cc1c([C@@H](C)Nc2nnc(C)c3ccc(-n4cc5c(n4)CNC5)cc23)cccc1C(F)(F)F` [Example 10-16, (R)-7-(5,6-dihydropyrrolo[3,4-c]pyrazol-2(4H)-yl)-4-methyl-N-(1-(2-methyl-3-(trifluoromethyl)phenyl)ethyl)phthalazin-1-amine], the pIC50 in the experiment on pERK in MKN1 cells (setting [3]) is 6.49. In addition, the pKi in experiment [2] (setting [4]) was 8.11.

Regarding `Cc1nnc(N[C@H](C)c2cccc(C(F)(F)F)c2F)c2cc(N3C[C@H]4CC[C@@H]3CN4C)ncc12` [Example 12-60], the pIC50 with pERK in MKN1 cells (setting [3]) was 7.62. The pKi in experiment [2] (setting [4]) was 9.60.

`Cc1cccc(C(C)Nc2nnc(C)c3ccc(N4CCOCC4)cc23)c1Cl` (centres unmarked) [Example 10-60, N-(1-(2-chloro-3-methylphenyl)ethyl)-4-methyl-7-morpholinophthalazin-1-amine]: the pIC50 in the experiment with pERK in MKN1 cells (setting [3]) is 6.02. Also, in experiment [2] (setting [4]), the negative logarithm of the Ki (pKi) was 8.70.

On to `Cc1nnc(N[C@H](C)c2cccc(C(F)(F)F)c2F)c2cc(N3CC(C)(N(C)C)C3)ccc12` [Example 10-78, (R)-7-(3-(dimethylamino)-3-methylazetidin-1-yl)-N-(1-(2-fluoro-3-(trifluoromethyl)phenyl)ethyl)-4-methylphthalazin-1-amine], for which the pIC50 in the experiment on pERK in MKN1 cells (setting [3]) was 6.94. For the same compound, the pKi in experiment [2] (setting [4]) is 8.94.

A word on the pIC50: it is the IC50 on a negative log10 scale, so that one unit is a factor of ten. The pKi is the negative decadic logarithm of the Ki, by convention in mol/L.
